The test has as its system human tenocytes. Description: Human tenocyte adhesion and proliferation, in vitro culture, manual count in ten microscopic fields. The note with it: IGF-1 10 ng/mL, same increase reached after 9 hours, FIG. 2. Type of test: cell-based. Here is the method: The objective was to determine the effect of compound Ic on human tenocyte proliferation and adhesion in an in vitro culture model, since a drug stimulating tenocyte proliferation and adhesion could be especially useful in the treatment or repair of tendons.
For comparison purposes, the effect of the growth factor IGF-1 on human tenocyte proliferation and adhesion in the same type of in vitro culture model was determined.
The increase of adhered tenocytes was quantified by means of manual count in ten microscopic fields.
Human tendon explants (of approximately 3-5 mm) were cultured in a culture flask with culture medium formed by 10% FCS, DMEM/Ham-12 (50/50) (Dulbecco's Modified Eagle's Medium with Ham-12), 50 IU/mL of penicillin/streptomycin, […] of ascorbic acid, 2.5 μg/mL of amphotericin B, 1% glutamine and 1% essential amino acids. […]
Twelve-well plates were prepared with 15,000 tenocytes/well and they were incubated with 10% FCS (fetal calf serum). On the following day, the cells were washed three times with serum-free culture medium (0.5% FCS) and were incubated for 30 minutes with serum-free culture medium, after which the control cultures were counted (time “0 hours”). […]
In all the assays, the cells were incubated for 71 hours and each well was evaluated in each time period by means of a manual count in 10 microscopic fields. […]

For “IGF-1: growth factor IGF-1 (Insulin-like Growth Factor 1), used for comparison at 10 ng/mL”, the “increase in the number of adhered tenocytes with respect to the control” value is listed as ~45%.

The values are drawn from patent US8394781B2, “Disaccharides for the treatment of tendons, ligaments, and bones” (Bioiberica, S.A., priority 2007, dated 2013).
